{"source": "patent US12409148B2", "about": "“Plant tissue-derived nanoparticles and food powders” (PSIGRYPH INC., priority 2018, dated 2025)", "key": {"[1]": {"test_system": "Normal Cell Line CRL 1790", "description": "(§1) Cell culture: Three cell lines derived from colon, CRL 1790, a normal cell line, HT 29, a colorectal cancer cell line and CRL 2158 a multidrug resistant colorectal cancer cell line (ATCC) were used to evaluate the cytotoxicity of nanocomplexes. Cells were cultured in media specifically recommended for each cell line. For HT 29, the medium used was DMEM (Dulbecco's modified Eagle's medium, Sigma), for CRL 2158, the medium used was RPMI, and for CRL 1790, the medium used was EMEM (Eagle's minimum essential medium; Cedarlane Labs, Burlington, ON, Canada). All the media were supplemented with FBS, Penicillin/streptomycin, and L-glutamine. At confluency (˜80%), cells were washed with 1×PBS twice. Cells were incubated with trypsin-EDTA for 5 minutes and then diluted in respective media supplemented with 10% FBS before staining with trypan blue (50 ul of cells and 450 ul of trypan blue) and counting viable cells to evaluate cytotoxicity. The cytotoxicity was determined by trypan blue exclusion by living cells and blue staining of dead cells. The number of dead cells in a unit area was counted and expressed as a percentage of total cells in the area. […]"}, "[2]": {"test_system": "Colorectal MDR cell line CRL 2158", "description": "as §1"}, "[3]": {"assay": "DPPH radical scavenging capacity of food powder", "assay_type": "biochemical", "conditions": "positive control at same concentrations as polyphenols"}, "HT 29 cells": {"test_system": "HT 29 cells", "assay": "Calcein uptake by confocal microscopy", "assay_type": "cell-based, human", "description": "(§2) Calcein uptake into HT 29, CRL 1790 cells: Uptake of calcein-loaded nanoparticles into mammalian cells. Calcein by itself is impermeable through membrane, and may be taken up at a low level by endocytosis. Ethanol-bleached cherry was homogenized in water, also containing 1 mg/g fresh weight equivalent of calcein, and the supernatant dialyzed against water. Calcein complexed to nanofilaments is retained within the dialysis bag, and used for uptake measurements by confocal microscopy.\n(§3) Studies were also performed to investigate use of nanofibres as delivery vehicles for a cargo of interest, where the cargo was non-covalently complexed with the nanofibres. In this study, nanofibres were used for cellular delivery of calcein. […]\n(§4) Uptake of complexed molecules by nanofibres: Nanofibres are extremely long (micrometers in length, ˜5 nm in diameter; see FIG. 37, for example), and their ability to cross the plasma membrane was investigated. […] HT-29 and CRL-1790 cells were incubated in the presence of calcein alone, and calcein-complexed nanofibres (of equal fluorescence intensity). Uptake of calcein and calcein complexed with nanofibres were monitored by confocal microscopy. […] Similar experiments were also conducted with nanoparticles, however, because of quenching of fluorescence by polyphenols, successful acquisition of images was not achieved."}, "CRL 1790 cells": {"test_system": "CRL 1790 cells", "assay": "Calcein uptake by confocal microscopy", "assay_type": "cell-based, human", "description": "as §2, §3, §4"}}, "note": "Entries after “also recorded” stand apart in the source; their conditions may differ."}
{"compound": "CC(=O)O[C@H]1C(=O)[C@@]2(C)[C@H]([C@H](OC(=O)c3ccccc3)[C@]3(O)C[C@H](OC(=O)[C@H](O)[C@@H](NC(=O)c4ccccc4)c4ccccc4)C(C)=C1C3(C)C)[C@]1(OC(C)=O)CO[C@@H]1C[C@@H]2O", "note": "[Paclitaxel, paclitaxel]", "values": [{"measurement": "cytotoxicity (in words)", "setting": "[1]", "value": "low level of cytotoxicity"}, {"measurement": "cytotoxicity (in words)", "setting": "[2]", "value": "low level of cytotoxicity"}]}
{"compound": "Cc1c(C)c2c(c(C)c1O)CCC(C)(C(=O)O)O2", "note": "(centres unmarked) [Trolox]", "values": [{"measurement": "TEAC value", "setting": "[3]", "value": 1}]}
{"compound": "O=C(O)CN(CC(=O)O)Cc1cc2c(cc1O)Oc1cc(O)c(CN(CC(=O)O)CC(=O)O)cc1C21OC(=O)c2ccccc21", "note": "[calcein]", "values": [{"measurement": "uptake of calcein into cells", "setting": "HT 29 cells", "value": "comparatively very low; also recorded: Far reduced uptake"}, {"measurement": "uptake of calcein into cells", "setting": "CRL 1790 cells", "value": "comparatively very low"}]}
